Where “and” joins values, the source holds several entries; their conditions need not be identical. Equal entries are not always repeated. Where two headings read alike, the source gives them in different places.

Drawing on patent publication US8846656B2, “Tetrahydropyrido-pyridine and tetrahydropyrido-pyrimidine compounds and use thereof as C5a receptor modulators” (Novartis AG, priority 2011, dated 2014), this text covers IC50 for 24 molecules.

One test relates to CD11b. Kind of test: Human whole blood CD11b up-regulation assay. Type of test: cell-based. Conditions: 2 nM human C5a, CD15+ granulocytes, read-out: hCD11b IC50. As to the method: Whole blood was collected in sodium heparin tubes and the assay started within 2 hours of the blood draw. The blood was incubated with compounds in 1% DMSO (dimethyl sulfoxide) at room temperature for 10 minutes with gentle rocking. 2 nM of human C5a was then added for 15 minutes at room temperature with gentle rocking. Following the C5a incubation period cells were washed once with cold FACS (fluorescence-activated cell sorting) buffer (phosphate buffered saline+0.5% bovine serum albumin) FITC (fluorescein isothiocyanate) mouse anti-human CD15 and PE-Cy5 (phycoerythrin-cyanine 5) mouse anti-human CD11b antibodies (Becton Dickinson) were gently mixed with the cells and allowed to incubate for 30 minutes on ice protected from the light. Cells were then washed three times with cold FACS buffer. Red blood cells (RBC) were lysed by incubating with BD FACS lysis buffer (Becton Dickinson) for 10 minutes at room temperature. Cells were pelleted and the lysing procedure was repeated until all RBCs were lysed. The remaining leukocytes were resuspended in BD lysis buffer. Samples were acquired on the LSR^11 flow cytometer and 10,000 events of the CD15+ granulocyte population were collected. The CD11b median fluorescence intensity of the CD 15+ cell population was evaluated using FACSDiva software (Becton Dickinson).

Another test has as its target human C5aR (Homo sapiens (Human), UniProt P21730). Kind of test: FLIPR assay: inhibition of C5a-mediated calcium mobilization. The format is cell-based. Conditions: stable cell line over expressing human C5aR & Gα15, human C5a at EC50 (0.1-0.25 nM). As for the experimental part: Compounds were tested for their ability to inhibit C5a-mediated calcium mobilization using a stable cell line over expressing the human C5aR & the Gα15 protein on the FLIPR (Fluorescent Imaging Plate Reader) Tetra system. Cells were maintained in culture media containing DMEM (Dulbecco's Modified Eagle Medium) with 4.5 g/L glucose, 10% fetal bovine serum, 100 U/mL, 1× non-essential amino acid, and 250 μg/mL G418 (Geneticin). Prior to testing of compounds, cells were plated at 10,000 cells/well in clear bottom 384-well black plate, and incubated overnight at 37° C. with 5% CO2. On the day of experiment, culture media was removed, and replaced with assay buffer HBSS (Hanks' Balanced Salt Solution) with 20 mM HEPES (4-(2-hydroxyethyl)-1-piperazineethanesulfonic acid) and 0.1% BSA (bovine serum albumin) BSA containing calcium 5 dye (Molecular Devices) and 2.5 mM probenecid. After 1 hour incubation at 37° C., 5% CO2 for 60 min, cells were pre-incubated with compounds for 30 minutes at room temperature, in 1% DMSO (dimethyl sulfoxide).
On the technique in general: Calcium assays in cells follow changes in intracellular calcium, usually with a dye or a luminescent sensor.

Sequence of human C5aR (P21730 whole entry): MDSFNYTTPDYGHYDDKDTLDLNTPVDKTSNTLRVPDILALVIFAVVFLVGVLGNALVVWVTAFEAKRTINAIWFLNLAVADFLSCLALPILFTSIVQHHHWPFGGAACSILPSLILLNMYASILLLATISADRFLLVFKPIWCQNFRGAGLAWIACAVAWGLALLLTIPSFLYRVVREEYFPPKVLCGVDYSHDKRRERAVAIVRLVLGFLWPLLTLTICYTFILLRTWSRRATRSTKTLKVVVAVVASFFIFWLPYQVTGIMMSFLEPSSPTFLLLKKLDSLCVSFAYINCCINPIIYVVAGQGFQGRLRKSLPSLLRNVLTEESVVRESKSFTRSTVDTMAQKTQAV

As a reminder, the IC50 is the point on the concentration scale where inhibition reaches its midpoint. As for `Cc1ccc2[nH]nc(C)c2c1-c1nc2c(c(N3CC[C@@H]4OC[C@]4(C)C3)n1)CN(c1c(Cl)c(C3CC3)nn1C)CC2` (racemic) [Example 69-L, (1S*,6S*)-3-(6-(4-chloro-3-cyclopropyl-1-methyl-1H-pyrazol-5-yl)-2-(3,5-dimethyl-1H-indazol-4-yl)-5,6,7,8-tetrahydropyrido[4,3-d]pyrimidin-4-yl)-1-methyl-7-oxa-3-azabicyclo[4.2.0]octane], the IC50 in the test on CD11b (Homo sapiens) turned out to be 54 nM.

On to `CCn1nc(C2CC2)c(Cl)c1N1CCc2nc(-c3c(C)ccc4[nH]nc(C)c34)nc(N3CCC3C)c2C1` (single isomer, unassigned) [Example 70-H, 6-(4-chloro-3-cyclopropyl-1-ethyl-1H-pyrazol-5-yl)-2-(3,5-dimethyl-1H-indazol-4-yl)-4-(2-methylazetidin-1-yl)-5,6,7,8-tetrahydropyrido[4,3-d]pyrimidine], for which the IC50 in the test with CD11b (Homo sapiens) amounted to 41 nM.

On to `CCn1nc(C2CC2)c(Cl)c1N1CCc2nc(-c3c(C)ccc4[nH]nc(C)c34)nc(N3CCC3C)c2C1` (single isomer, unassigned) [Example 70-I, 6-(4-chloro-3-cyclopropyl-1-ethyl-1H-pyrazol-5-yl)-2-(3,5-dimethyl-1H-indazol-4-yl)-4-(2-methylazetidin-1-yl)-5,6,7,8-tetrahydropyrido[4,3-d]pyrimidine], for which the IC50 in the test with CD11b turned out to be 38 nM.

Turning to `Cc1c[nH]c2cccc(-c3nc4c(c(N5CCN(CC(N)=O)[C@H](C)C5)n3)CN(c3ccc(F)cc3F)CC4)c12` [Example 24-I, (R)-2-(4-(6-(2,4-difluorophenyl)-2-(3-methyl-1H-indol-4-yl)-5,6,7,8-tetrahydropyrido[4,3-d]pyrimidin-4-yl)-2-methylpiperazin-1-yl)acetamide], on human C5aR, the IC50 turned out to be 464 nM.

As for `CC(=O)N1CCN(c2nc(-c3ccccc3C(F)(F)F)nc3c2CN(c2cc(C(C)C)ccc2C)CC3)[C@H](C)C1` [Example 25-F, (R)-1-(4-(6-(5-isopropyl-2-methylphenyl)-2-(2-(trifluoromethyl)phenyl)-5,6,7,8-tetrahydropyrido[4,3-d]pyrimidin-4-yl)-3-methylpiperazin-1-yl)ethanone], the IC50 on human C5aR was found to be 23 nM.

For `COCCCOc1nc(-c2c(C)cccc2C)nc2c1CN(c1cc(C(C)C)ccc1C)CC2` [Example 39-D, 2-(2,6-Dimethylphenyl)-6-(5-isopropyl-2-methylphenyl)-4-(3-methoxypropoxy)-5,6,7,8-tetrahydropyrido[4,3-d]pyrimidine], the 50% inhibitory concentration (IC50) on human C5aR worked out at 74 nM.

With `CCc1cccc(CC)c1-c1cc(C)c2c(n1)CCN(c1ccc(C)cc1C)C2` [Example 40-L, 2-(2,6-diethylphenyl)-6-(2,4-dimethylphenyl)-4-methyl-5,6,7,8-tetrahydro-1,6-naphthyridine], the IC50 on human C5aR turned out to be 180 nM.

As to `CCn1nc(C)c(N2CCc3nc(-c4c(C)ccc5[nH]ncc45)cc(C)c3C2)c1C` [Example 40-P, 6-(1-ethyl-3,5-dimethyl-1H-pyrazol-4-yl)-4-methyl-2-(5-methyl-1H-indazol-4-yl)-5,6,7,8-tetrahydro-1,6-naphthyridine], the IC50 at human C5aR was determined as 37 nM.

Regarding `Cc1cc(-c2c(C)ccc3[nH]ncc23)nc2c1CN(c1cc(C3CC3)nn1C)CC2` [Example 40-Q, 6-(3-cyclopropyl-1-methyl-1H-pyrazol-5-yl)-4-methyl-2-(5-methyl-1H-indazol-4-yl)-5,6,7,8-tetrahydro-1,6-naphthyridine], on human C5aR, the 50% inhibitory concentration (IC50) came out at 868 nM.

On to `Cc1ccc(C(C)C)cc1N1CCc2nc(-c3c(C)ccc4[nH]ncc34)cc(C)c2C1` [Example 41-D, 6-(5-Isopropyl-2-methylphenyl)-4-methyl-2-(5-methyl-1H-indazol-4-yl)-5,6,7,8-tetrahydro-1,6-naphthyridine], for which the concentration for half-maximal inhibition (IC50) in the test on CD11b (Homo sapiens) turned out to be 153 nM.

On to `Cc1ccc(C(C)C)cc1N1CCc2nc(-c3cccc4[nH]nc(C)c34)cc(C)c2C1` [Example 41-E, 6-(5-isopropyl-2-methylphenyl)-4-methyl-2-(3-methyl-1H-indazol-4-yl)-5,6,7,8-tetrahydro-1,6-naphthyridine], for which, on human C5aR, the 50% inhibitory concentration (IC50) came out at 21 nM.

In the case of `COc1ccc(Cl)c(-c2cc(C)c3c(n2)CCN(c2cc(C(C)C)ccc2C)C3)c1` [Example 41-F, 2-(2-chloro-5-methoxyphenyl)-6-(5-isopropyl-2-methylphenyl)-4-methyl-5,6,7,8-tetrahydro-1,6-naphthyridine], on human C5aR, the IC50 came out at 550 nM.

As to `[2H]C1([2H])c2c(C)cc(-c3c(CC)cccc3CC)nc2CC(C)N1c1cc(C2CC2)nn1C` (stereo not drawn) [Example 42-H, 6-(3-cyclopropyl-1-methyl-1H-pyrazol-5-yl)-2-(2,6-diethylphenyl)-4,7-dimethyl-5,6,7,8-tetrahydro(5,5-^2H2)-1,6-naphthyridine], at human C5aR, the half-maximal inhibitory concentration (IC50) was found to be 58 nM.

Take `[2H]C1([2H])c2c(C)cc(-c3c(C)cnc4[nH]ccc34)nc2CCN1c1cc(C(C)C)ccc1C` [Example 43-D, 6-(5-isopropyl-2-methylphenyl)-4-methyl-2-(5-methyl-1H-pyrrolo[2,3-b]pyridin-4-yl)-5,6,7,8-tetrahydro(5,5-^2H2)-1,6-naphthyridine]: the IC50 at human C5aR came out at 802 nM.

Take `[2H]C1([2H])c2c(C)cc(-c3c(CC)cccc3CC)nc2CCN1c1c(C)ccnc1C` [Example 44-D, 2-(2,6-Diethylphenyl)-6-(2,4-dimethylpyridin-3-yl)-4-methyl-5,6,7,8-tetrahydro(5,5-^2H2)-1,6-naphthyridine]: at human C5aR, the IC50 turned out to be 131 nM.

With `COc1ccc(C)c(N2CCc3nc(-c4c(C)ccc5[nH]ncc45)cc(C)c3C2)c1` [Example 46-C], the IC50 at human C5aR was found to be 25 nM.

On to `CCc1cccc(CC)c1-c1cc(C)c2c(n1)CCN(c1nnnn1C)C2` [Example 48, 2-(2,6-Diethylphenyl)-4-methyl-6-(1-methyl-1H-tetrazol-5-yl)-5,6,7,8-tetrahydro-1,6-naphthyridine], for which the IC50 at human C5aR worked out at 198 nM.

Take `COCCN(C)c1cc(-c2c(C)cccc2C)nc2c1C(=O)N(c1cc(C(C)C)ccc1C)CC2` [Example 50-E, 2-(2,6-dimethylphenyl)-6-(5-isopropyl-2-methylphenyl)-4-((2-methoxyethyl)(methyl)amino)-7,8-dihydro-1,6-naphthyridin-5(6H)-one]: the IC50 at human C5aR came to 790 nM.

For the molecule `COCCN(C)c1cc(-c2c(C)cccc2C)nc2c1CN(c1cc(C(C)C)ccc1C)CC2` [Example 51-D, 2-(2,6-dimethylphenyl)-6-(5-isopropyl-2-methylphenyl)-N-(2-methoxyethyl)-N-methyl-5,6,7,8-tetrahydro-1,6-naphthyridin-4-amine], at human C5aR, the IC50 is 197 nM.

Turning to `CC(=O)N1CCN(c2nc(-c3cccc4[nH]cc(C)c34)nc3c2CN(c2cc(C(C)C)ccc2C)CC3)CC12CC2` [Example 53, 1-(7-(6-(5-Isopropyl-2-methylphenyl)-2-(3-methyl-1H-indol-4-yl)-5,6,7,8-tetrahydropyrido[4,3-d]pyrimidin-4-yl)-4,7-diazaspiro[2.5]octan-4-yl)ethanone], on human C5aR, the IC50 worked out at 18 nM.

As to `CO[C@@H]1CCN(c2nc(-c3c(C)ccc4[nH]nc(C)c34)nc3c2CN(c2c(Cl)c(C4CC4)nn2C)CC3)CC1(C)C` [Example 55-G, (R)-6-(4-Chloro-3-cyclopropyl-1-methyl-1H-pyrazol-5-yl)-2-(3,5-dimethyl-1H-indazol-4-yl)-4-(4-methoxy-3,3-dimethylpiperidin-1-yl)-5,6,7,8-tetrahydropyrido[4,3-d]pyrimidine], the IC50 on human C5aR is 4 nM and 2 nM.

As for `CO[C@@H]1CCN(c2nc(-c3c(C)ccc4[nH]nc(C)c34)nc3c2CN(c2c(Cl)c(C(F)F)nn2C)CC3)CC1(C)C` [Example 55-I, (R)-6-(4-chloro-3-(difluoromethyl)-1-methyl-1H-pyrazol-5-yl)-2-(3,5-dimethyl-1H-indazol-4-yl)-4-(4-methoxy-3,3-dimethylpiperidin-1-yl)-5,6,7,8-tetrahydropyrido[4,3-d]pyrimidine], the IC50 at human C5aR came out at 1 nM.

In the case of `CCO[C@@H]1CCN(c2nc(-c3c(C)ccc4[nH]nc(C)c34)nc3c2CN(c2c(Cl)c(C4CC4)nn2C)CC3)[C@H](C)C1` [Example 55-J, 6-(4-chloro-3-cyclopropyl-1-methyl-1H-pyrazol-5-yl)-2-(3,5-dimethyl-1H-indazol-4-yl)-4-((2R,4R)-4-ethoxy-2-methylpiperidin-1-yl)-5,6,7,8-tetrahydropyrido[4,3-d]pyrimidine], the IC50 at human C5aR is 5 nM.

As to `CCO[C@@H]1CCN(c2nc(-c3c(C)ccc4[nH]nc(C)c34)nc3c2CN(c2c(F)c(C4CC4)nn2C)CC3)CC1(C)C` [Example 56-E, (R)-6-(3-cyclopropyl-4-fluoro-1-methyl-1H-pyrazol-5-yl)-2-(3,5-dimethyl-1H-indazol-4-yl)-4-(4-ethoxy-3,3-dimethylpiperidin-1-yl)-5,6,7,8-tetrahydropyrido[4,3-d]pyrimidine], the IC50 on human C5aR was determined as 2 nM.
